Measured values: PubChem BioAssay (NCI)
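Five compound concentrations were applied to cells in 96-well plates for 48 hours; endpoints were derived by simple linear interpolation of the resulting dose-response curve. GI50 = concentration required for 50% inhibition of growth. Definition used: TGI = concentration required for complete inhibition of growth.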

Tests used:
Test in all cases: DTP human tumour cell line panel, 48 h
U251 CNS = test system: U251 CNS
MCF7 breast = test system: MCF7 breast
NCI-H460 lung = test system: NCI-H460 lung
SK-MEL-5 melanoma = test system: SK-MEL-5 melanoma
SF-268 CNS = test system: SF-268 CNS
M14 melanoma = test system: M14 melanoma
TK-10 renal = test system: TK-10 renal
IGROV1 ovarian = test system: IGROV1 ovarian
OVCAR-5 ovarian = test system: OVCAR-5 ovarian
UO-31 renal = test system: UO-31 renal
NCI/ADR-RES ovarian = test system: NCI/ADR-RES ovarian
HCT-15 colon = test system: HCT-15 colon
SN12C renal = test system: SN12C renal
HOP-62 NSCLC = test system: HOP-62 NSCLC
BT-549 breast = test system: BT-549 breast
SF-295 CNS = test system: SF-295 CNS
SK-OV-3 ovarian = test system: SK-OV-3 ovarian
HCC-2998 colon = test system: HCC-2998 colon
CAKI-1 renal = test system: CAKI-1 renal
RPMI-8226 leukemia = test system: RPMI-8226 leukemia
OVCAR-8 ovarian = test system: OVCAR-8 ovarian
HS 578T breast = test system: HS 578T breast
OVCAR-3 ovarian = test system: OVCAR-3 ovarian
PC-3 prostate = test system: PC-3 prostate
K-562 leukemia = test system: K-562 leukemia
SW-620 colon = test system: SW-620 colon
HCT-116 colon = test system: HCT-116 colon
NCI-H522 lung = test system: NCI-H522 lung
HOP-92 NSCLC = test system: HOP-92 NSCLC
HL-60(TB) leukemia = test system: HL-60(TB) leukemia
OVCAR-4 ovarian = test system: OVCAR-4 ovarian
NCI-H23 lung = test system: NCI-H23 lung
SF-539 CNS = test system: SF-539 CNS
SNB-19 CNS = test system: SNB-19 CNS
MDA-MB-435 = test system: MDA-MB-435
SK-MEL-2 melanoma = test system: SK-MEL-2 melanoma
EKVX NSCLC = test system: EKVX NSCLC
COLO 205 colon = test system: COLO 205 colon
A549 NSCLC = test system: A549 NSCLC
786-0 renal = test system: 786-0 renal
RXF 393 renal = test system: RXF 393 renal
NCI-H226 lung = test system: NCI-H226 lung
UACC-62 melanoma = test system: UACC-62 melanoma
ACHN renal = test system: ACHN renal
LOX IMVI melanoma = test system: LOX IMVI melanoma
SK-MEL-28 melanoma = test system: SK-MEL-28 melanoma
HT29 colon = test system: HT29 colon
T-47D breast = test system: T-47D breast
MOLT-4 leukemia = test system: MOLT-4 leukemia
SR leukemia = test system: SR leukemia
CCRF-CEM leukemia = test system: CCRF-CEM leukemia

Question: Which GI50 (U251 CNS) does the source give for c1c2c(cc3c1OCO3)-c1ncc3cc4c(cc3c1C2)OCO4 here?
Answer: < 0.0369 µM

Question: And the TGI (U251 CNS)?
Answer: 26.9 µM

Question: And the GI50 (MCF7 breast)?
Answer: < 0.0377 µM

Question: And the TGI (MCF7 breast)?
Answer: 7.44 µM

Question: And the GI50 (NCI-H460 lung)?
Answer: 0.108 µM

Question: And the TGI (NCI-H460 lung)?
Answer: > 47.1 µM

Question: And the GI50 (SK-MEL-5 melanoma)?
Answer: 0.216 µM

Question: What about the TGI (SK-MEL-5 melanoma) of the same molecule?
Answer: 0.479 µM

Question: And the GI50 (SF-268 CNS)?
Answer: 0.112 µM

Question: What about the TGI (SF-268 CNS) of the same molecule?
Answer: 7.79 µM

Question: And the GI50 (M14 melanoma)?
Answer: < 0.01 µM

Question: What about the TGI (M14 melanoma) of the same molecule?
Answer: > 100 µM

Question: And the GI50 (TK-10 renal)?
Answer: 0.143 µM

Question: And the TGI (TK-10 renal)?
Answer: 3.87 µM

Question: And the TGI (IGROV1 ovarian)?
Answer: > 100 µM

Question: What about the GI50 (OVCAR-5 ovarian) of the same molecule?
Answer: 44.7 µM

Question: And the TGI (OVCAR-5 ovarian)?
Answer: > 100 µM

Question: What about the GI50 (UO-31 renal) of the same molecule?
Answer: 2.49 µM

Question: What about the TGI (UO-31 renal) of the same molecule?
Answer: > 100 µM

Question: And the GI50 (NCI/ADR-RES ovarian)?
Answer: 0.0508 µM

Question: And the TGI (NCI/ADR-RES ovarian)?
Answer: 52.4 µM

Question: What about the GI50 (HCT-15 colon) of the same molecule?
Answer: < 0.01 µM

Question: What about the TGI (HCT-15 colon) of the same molecule?
Answer: 24.8 µM

Question: And the GI50 (SN12C renal)?
Answer: 0.0414 µM

Question: And the TGI (SN12C renal)?
Answer: > 100 µM

Question: And the GI50 (HOP-62 NSCLC)?
Answer: 0.112 µM

Question: What about the TGI (HOP-62 NSCLC) of the same molecule?
Answer: 27.5 µM

Question: What about the GI50 (BT-549 breast) of the same molecule?
Answer: 0.211 µM

Question: And the TGI (BT-549 breast)?
Answer: > 100 µM

Question: And the TGI (SF-295 CNS)?
Answer: > 34 µM

Question: What about the GI50 (SK-OV-3 ovarian) of the same molecule?
Answer: < 0.01 µM

Question: And the TGI (SK-OV-3 ovarian)?
Answer: 26.8 µM

Question: And the TGI (HCC-2998 colon)?
Answer: > 32.4 µM

Question: And the GI50 (CAKI-1 renal)?
Answer: < 0.0154 µM

Question: What about the TGI (CAKI-1 renal) of the same molecule?
Answer: 2.14 µM

Question: What about the GI50 (RPMI-8226 leukemia) of the same molecule?
Answer: 0.108 µM

Question: And the TGI (RPMI-8226 leukemia)?
Answer: > 76.9 µM

Question: And the GI50 (OVCAR-8 ovarian)?
Answer: 0.111 µM

Question: And the TGI (OVCAR-8 ovarian)?
Answer: 10.7 µM

Question: What about the TGI (HS 578T breast) of the same molecule?
Answer: > 94.8 µM

Question: And the GI50 (OVCAR-3 ovarian)?
Answer: 0.18 µM

Question: What about the TGI (OVCAR-3 ovarian) of the same molecule?
Answer: 0.356 µM

Question: What about the GI50 (PC-3 prostate) of the same molecule?
Answer: 0.581 µM

Question: And the TGI (PC-3 prostate)?
Answer: > 100 µM

Question: What about the GI50 (K-562 leukemia) of the same molecule?
Answer: 0.0101 µM

Question: What about the TGI (K-562 leukemia) of the same molecule?
Answer: > 64.9 µM

Question: What about the GI50 (SW-620 colon) of the same molecule?
Answer: 0.136 µM

Question: What about the TGI (SW-620 colon) of the same molecule?
Answer: > 100 µM

Question: What about the GI50 (HCT-116 colon) of the same molecule?
Answer: < 0.0305 µM

Question: What about the TGI (HCT-116 colon) of the same molecule?
Answer: > 61.2 µM

Question: What about the TGI (NCI-H522 lung) of the same molecule?
Answer: 72.2 µM

Question: What about the GI50 (HOP-92 NSCLC) of the same molecule?
Answer: 33.4 µM

Question: And the TGI (HOP-92 NSCLC)?
Answer: > 80.5 µM

Question: What about the GI50 (HL-60(TB) leukemia) of the same molecule?
Answer: 0.0713 µM

Question: And the TGI (HL-60(TB) leukemia)?
Answer: > 100 µM

Question: And the GI50 (OVCAR-4 ovarian)?
Answer: 28.6 µM

Question: And the TGI (OVCAR-4 ovarian)?
Answer: > 100 µM

Question: What about the GI50 (NCI-H23 lung) of the same molecule?
Answer: < 0.0229 µM

Question: What about the TGI (NCI-H23 lung) of the same molecule?
Answer: > 24.7 µM

Question: And the GI50 (SF-539 CNS)?
Answer: 0.598 µM

Question: What about the TGI (SF-539 CNS) of the same molecule?
Answer: 5.25 µM

Question: And the TGI (SNB-19 CNS)?
Answer: 43.6 µM

Question: What about the GI50 (MDA-MB-435) of the same molecule?
Answer: 54 µM

Question: What about the TGI (MDA-MB-435) of the same molecule?
Answer: > 100 µM

Question: And the GI50 (SK-MEL-2 melanoma)?
Answer: > 8.58 µM

Question: What about the TGI (SK-MEL-2 melanoma) of the same molecule?
Answer: > 87.1 µM

Question: What about the GI50 (EKVX NSCLC) of the same molecule?
Answer: 19 µM

Question: What about the TGI (EKVX NSCLC) of the same molecule?
Answer: > 100 µM

Question: And the GI50 (COLO 205 colon)?
Answer: < 0.0354 µM

Question: What about the GI50 (A549 NSCLC) of the same molecule?
Answer: 0.702 µM

Question: What about the TGI (A549 NSCLC) of the same molecule?
Answer: > 77 µM

Question: What about the TGI (786-0 renal) of the same molecule?
Answer: 44.2 µM

Question: What about the GI50 (RXF 393 renal) of the same molecule?
Answer: 0.797 µM

Question: What about the TGI (RXF 393 renal) of the same molecule?
Answer: 43.5 µM

Question: And the GI50 (NCI-H226 lung)?
Answer: 8.8 µM

Question: What about the TGI (NCI-H226 lung) of the same molecule?
Answer: > 100 µM

Question: And the GI50 (UACC-62 melanoma)?
Answer: < 0.0267 µM

Question: And the TGI (UACC-62 melanoma)?
Answer: 9.16 µM

Question: What about the GI50 (ACHN renal) of the same molecule?
Answer: 0.0337 µM

Question: And the TGI (ACHN renal)?
Answer: 6.33 µM

Question: And the GI50 (LOX IMVI melanoma)?
Answer: < 0.01 µM

Question: What about the TGI (LOX IMVI melanoma) of the same molecule?
Answer: 94.1 µM

Question: And the GI50 (SK-MEL-28 melanoma)?
Answer: < 0.01 µM

Question: What about the TGI (SK-MEL-28 melanoma) of the same molecule?
Answer: 41.8 µM

Question: And the GI50 (HT29 colon)?
Answer: < 0.01 µM

Question: What about the TGI (HT29 colon) of the same molecule?
Answer: > 100 µM

Question: And the GI50 (T-47D breast)?
Answer: > 100 µM

Question: And the TGI (T-47D breast)?
Answer: > 100 µM

Question: And the GI50 (MOLT-4 leukemia)?
Answer: 0.0147 µM

Question: And the TGI (MOLT-4 leukemia)?
Answer: 0.152 µM

Question: And the GI50 (SR leukemia)?
Answer: < 0.01 µM

Question: And the GI50 (CCRF-CEM leukemia)?
Answer: 17.6 µM

Question: And the TGI (CCRF-CEM leukemia)?
Answer: > 100 µM
